Data as given in ChEMBL document CHEMBL1687773 (Antimicrob Agents Chemother, 2010).
Calls of active or inactive are those of the source. No cut-off for these calls is given here.

Key:
[1] = tested on: Human immunodeficiency virus 1; test: Antiviral activity against HIV1 NL4-3 infected in human SupT1 cells derived from 11 viral passages assessed as inhibition of viral replication after 21 days relative to drug sensitive HIV1 NL4-3; assay type: functional, SUP-T1
[2] = molecular target: D(2) dopamine receptor (Homo sapiens) (UniProt P14416); test: Inhibition of human dopamine D2 receptor at up to 10 uM
Sequence of D(2) dopamine receptor (Homo sapiens) (P14416 whole entry): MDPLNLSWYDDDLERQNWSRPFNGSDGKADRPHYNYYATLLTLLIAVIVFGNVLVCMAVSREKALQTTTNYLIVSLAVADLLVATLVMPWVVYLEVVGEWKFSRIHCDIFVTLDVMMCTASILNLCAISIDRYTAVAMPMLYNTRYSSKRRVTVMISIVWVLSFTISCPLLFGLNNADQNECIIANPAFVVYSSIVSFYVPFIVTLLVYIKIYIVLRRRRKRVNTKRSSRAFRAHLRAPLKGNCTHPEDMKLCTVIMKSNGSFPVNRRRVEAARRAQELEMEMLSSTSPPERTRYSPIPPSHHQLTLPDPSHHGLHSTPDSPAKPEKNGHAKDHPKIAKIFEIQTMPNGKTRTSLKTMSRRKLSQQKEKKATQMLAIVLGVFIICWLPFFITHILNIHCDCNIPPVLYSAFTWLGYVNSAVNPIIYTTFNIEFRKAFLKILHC

[3] = tested on: Human immunodeficiency virus 1; test: Antiviral activity against HIV1 NL4-3 harboring reverse transcriptase E233V mutant infected in human HeLaP4 cells assessed as inhibition of viral replication after 5 days by beta-galactosidase reporter assay; assay type: functional, organism-based
[4] = tested on: Human immunodeficiency virus type 1 reverse transcriptase (Human immunodeficiency virus 1), Q72547 [K103N]; test: Inhibition of HIV1 histidine-tagged reverse transcriptase K103N mutant activity by primer extension assay
[5] = Cytotoxicity against human HeLaP4 cells at 200 uM by aqueous nonradioactive cell proliferation assay; assay type: cell-based; conditions: helap4, 200 µM
[6] = tested on: Human immunodeficiency virus 1; test: Ratio of EC50 for wild type HIV1 NL4-3 to EC50 for HIV1 NL4-3 harboring reverse transcriptase K101E mutant; assay type: functional
[7] = species: Homo sapiens; test: Inhibition of human L-type calcium channel dihydropyridine binding site at up to 10 uM
[8] = molecular target: Beta-2 adrenergic receptor (Homo sapiens) (UniProt P07550); test: Inhibition of human adrenergic beta2 receptor at up to 10 uM
Sequence of Beta-2 adrenergic receptor (Homo sapiens) (P07550 whole entry, looked up): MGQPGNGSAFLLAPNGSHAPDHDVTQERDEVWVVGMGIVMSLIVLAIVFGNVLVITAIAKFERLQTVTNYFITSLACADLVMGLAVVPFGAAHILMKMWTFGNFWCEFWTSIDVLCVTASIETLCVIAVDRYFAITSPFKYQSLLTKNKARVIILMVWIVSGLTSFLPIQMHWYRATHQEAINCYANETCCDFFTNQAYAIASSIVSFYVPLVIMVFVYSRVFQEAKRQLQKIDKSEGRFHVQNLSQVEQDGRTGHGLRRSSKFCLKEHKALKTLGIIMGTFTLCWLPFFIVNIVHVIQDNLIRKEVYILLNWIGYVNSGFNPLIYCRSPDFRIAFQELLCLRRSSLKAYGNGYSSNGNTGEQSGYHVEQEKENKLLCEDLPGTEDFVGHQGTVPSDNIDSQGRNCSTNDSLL

[9] = tested on: Human immunodeficiency virus 1; test: Antiviral activity against HIV1 NL4-3 infected in human MT2 cells assessed as inhibition of virus-induced cell death at 0.5 multiplicities of infection after 6 days; assay type: functional, organism-based; conditions: Human immunodeficiency virus 1, NL4-3, MT2, 144 h
[10] = tested on: HepG2; test: Inhibition of DNA synthesis in human HepG2 cells assessed as [3H]-thymidine incorporation at up to 10 uM; assay type: functional, cell-based
[11] = molecular target: Muscarinic acetylcholine receptor (Homo sapiens) (UniProt P20309+P08173+P11229+P08172+P08912); test: Inhibition of human non-selective muscarinic receptor at up to 10 uM; assay type: protein assay
[12] = tested on: Human immunodeficiency virus 1; test: Ratio of EC50 for wild type HIV1 NL4-3 to EC50 for HIV1 NL4-3 harboring reverse transcriptase F227C mutant; assay type: functional
[13] = tested on: Human immunodeficiency virus 1; test: Ratio of EC50 for wild type HIV1 NL4-3 to EC50 for HIV1 NL4-3 harboring reverse transcriptase V106A, F227L mutant; assay type: functional
[14] = tested on: Human immunodeficiency virus 1; test: Ratio of EC50 for wild type HIV1 NL4-3 to EC50 for HIV1 NL4-3 harboring reverse transcriptase E138K mutant; assay type: functional
[15] = tested on: Human immunodeficiency virus 1; test: Ratio of EC50 for wild type HIV1 NL4-3 to EC50 for HIV1 NL4-3 harboring reverse transcriptase P236L mutant; assay type: functional
[16] = tested on: Human immunodeficiency virus 1; test: Antiviral activity against HIV1 NL4-3 harboring reverse transcriptase L100I, K103Q, H221H/Y mutant infected in human SupT1 cells derived from 11 viral passages with efavirenz assessed as inhibition of viral replication after 21 days relative to drug sensitive HIV1 NL4-3; assay type: functional, SUP-T1
[17] = tested on: Human immunodeficiency virus 1; test: Ratio of EC50 for wild type HIV1 NL4-3 to EC50 for HIV1 NL4-3 harboring reverse transcriptase Y181I mutant; assay type: functional
[18] = molecular target: Amine oxidase [flavin-containing] B (Homo sapiens, UniProt P27338); test: Inhibition of human MAO-B at up to 10 uM
Sequence of Amine oxidase [flavin-containing] B (P27338 whole entry): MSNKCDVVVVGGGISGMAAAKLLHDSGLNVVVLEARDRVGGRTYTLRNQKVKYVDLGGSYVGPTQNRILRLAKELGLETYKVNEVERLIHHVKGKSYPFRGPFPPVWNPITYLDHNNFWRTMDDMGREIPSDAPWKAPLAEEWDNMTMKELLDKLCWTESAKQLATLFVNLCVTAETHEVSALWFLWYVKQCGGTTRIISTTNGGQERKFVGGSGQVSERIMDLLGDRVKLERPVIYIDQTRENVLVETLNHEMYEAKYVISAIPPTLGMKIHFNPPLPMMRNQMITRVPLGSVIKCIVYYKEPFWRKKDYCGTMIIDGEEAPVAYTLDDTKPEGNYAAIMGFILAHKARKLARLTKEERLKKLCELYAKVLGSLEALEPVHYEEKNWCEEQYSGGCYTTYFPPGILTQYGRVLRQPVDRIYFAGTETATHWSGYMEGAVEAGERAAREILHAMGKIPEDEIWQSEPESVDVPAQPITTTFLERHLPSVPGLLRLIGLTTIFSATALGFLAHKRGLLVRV

[19] = tested on: Human immunodeficiency virus 1; test: Ratio of EC50 for wild type HIV1 NL4-3 to EC50 for HIV1 NL4-3 harboring reverse transcriptase Y188C mutant; assay type: functional
[20] = tested on: Human immunodeficiency virus type 1 reverse transcriptase (Human immunodeficiency virus 1), Q72547 [V106A]; test: Inhibition of HIV1 histidine-tagged reverse transcriptase V106A mutant activity by primer extension assay
[21] = tested on: Human immunodeficiency virus 1; test: Ratio of EC50 for wild type HIV1 NL4-3 to EC50 for HIV1 NL4-3 harboring reverse transcriptase M184V mutant; assay type: functional
[22] = Ratio of CC30 for human PBL cells to EC90 for HIV1
[23] = tested on: Human immunodeficiency virus type 1 reverse transcriptase (Human immunodeficiency virus 1), Q72547 [E138K]; test: Inhibition of HIV1 histidine-tagged reverse transcriptase E138K mutant activity by primer extension assay
[24] = molecular target: Type-1 angiotensin II receptor (Homo sapiens) (UniProt P30556); test: Inhibition of human AT1 receptor at up to 10 uM
Sequence of Type-1 angiotensin II receptor (Homo sapiens) (P30556 whole entry): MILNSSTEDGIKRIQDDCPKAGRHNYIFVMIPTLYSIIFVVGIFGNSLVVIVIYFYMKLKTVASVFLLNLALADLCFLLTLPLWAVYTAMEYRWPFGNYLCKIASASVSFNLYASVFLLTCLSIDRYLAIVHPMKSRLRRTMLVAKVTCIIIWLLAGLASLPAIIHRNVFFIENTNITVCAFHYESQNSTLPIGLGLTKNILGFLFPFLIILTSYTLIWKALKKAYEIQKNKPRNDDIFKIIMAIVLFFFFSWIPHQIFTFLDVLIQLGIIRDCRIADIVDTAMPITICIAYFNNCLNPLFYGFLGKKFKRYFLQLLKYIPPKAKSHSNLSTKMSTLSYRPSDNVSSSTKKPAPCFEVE

[25] = tested on: Human immunodeficiency virus 1; test: Ratio of EC50 for wild type HIV1 NL4-3 to EC50 for HIV1 NL4-3 harboring reverse transcriptase V106A mutant; assay type: functional
[26] = tested on: Human immunodeficiency virus 1; test: Ratio of EC50 for wild type HIV1 NL4-3 to EC50 for HIV1 NL4-3 harboring reverse transcriptase K103N mutant; assay type: functional
[27] = tested on: Human immunodeficiency virus 1; test: Antiviral activity against HIV1 NL4-3 harboring reverse transcriptase F227L mutant infected in human HeLaP4 cells assessed as inhibition of viral replication after 5 days by beta-galactosidase reporter assay; assay type: functional, organism-based
[28] = tested on: Human immunodeficiency virus 1; test: Ratio of EC50 for wild type HIV1 NL4-3 to EC50 for HIV1 NL4-3 harboring reverse transcriptase F227L mutant; assay type: functional
[29] = molecular target: Human immunodeficiency virus type 1 reverse transcriptase (Human immunodeficiency virus 1) (UniProt Q72547); test: Noncovalent binding affinity to wild type recombinant HIV1 HXB2 reverse transcriptase by protein X-ray crystallography analysis
[30] = species: Homo sapiens; test: Inhibition of human neuronal nicotinic […] receptor at up to 10 uM
[31] = tested on: Human immunodeficiency virus type 1 reverse transcriptase (Human immunodeficiency virus 1), Q72547 [K101E]; test: Inhibition of HIV1 histidine-tagged reverse transcriptase K101E mutant activity by primer extension assay
[32] = tested on: Human immunodeficiency virus 1; assay type: functional, organism-based; conditions: NL4-3, HeLaP4
[33] = tested on: Human immunodeficiency virus 1; test: Ratio of EC50 for wild type HIV1 NL4-3 to EC50 for HIV1 NL4-3 harboring reverse transcriptase L100I mutant; assay type: functional
[34] = tested on: Human immunodeficiency virus type 1 reverse transcriptase (Human immunodeficiency virus 1), Q72547 [F227L]; test: Inhibition of HIV1 histidine-tagged reverse transcriptase F227L mutant activity by primer extension assay
[35] = tested on: Human immunodeficiency virus type 1 reverse transcriptase (Human immunodeficiency virus 1), Q72547 [K103N]; test: Binding affinity to HIV1 HXB2 reverse transcriptase K103N mutant by protein X-ray crystallography analysis
[36] = tested on: Human immunodeficiency virus 1; test: Antiviral activity against HIV1 NL4-3 harboring reverse transcriptase L100I mutant infected in human HeLaP4 cells assessed as inhibition of viral replication after 5 days by beta-galactosidase reporter assay; assay type: functional, organism-based
[37] = molecular target: Human immunodeficiency virus type 1 reverse transcriptase (Human immunodeficiency virus 1, UniProt Q72547, K103N); test: Inhibition of HIV1 HXB2 reverse transcriptase K103N mutant activity by primer extension assay
[38] = tested on: Human immunodeficiency virus 1; test: Antiviral activity against HIV1 NL4-3 harboring reverse transcriptase M184V mutant infected in human HeLaP4 cells assessed as inhibition of viral replication after 5 days by beta-galactosidase reporter assay; assay type: functional, organism-based
[39] = tested on: Human immunodeficiency virus 1; assay type: functional, organism-based; conditions: NL4-3, HeLaP4; remark: listed apart in the source
[40] = species: Homo sapiens; test: Inhibition of human tyrosine hydroxylase at up to 10 uM
[41] = tested on: Human immunodeficiency virus 1; test: Antiviral activity against HIV1 NL4-3 harboring reverse transcriptase V108I, E138K mutant infected in human SupT1 cells derived from 9 viral passages with lersivirine assessed as inhibition of viral replication after 21 days relative to drug sensitive HIV1 NL4-3; assay type: functional, SUP-T1

## CCc1nn(CCO)c(CC)c1Oc1cc(C#N)cc(C#N)c1 [LERSIVIRINE]
[1]
  fold change (FC): 0.6
[2]
  inhibition: inactive
[3]
  inhibition: Active
[4]
  inhibition: Active
[5]
  Activity: Non-toxic
[6]
  Ratio EC50: 10
[7]
  inhibition: inactive
[8]
  inhibition: inactive
[9]
  EC50: 0.0005 µM
[10]
  inhibition: inactive
[11]
  inhibition: inactive
[12]
  Ratio EC50: 55
[13]
  Ratio EC50: >200
[14]
  Ratio EC50: 10
[15]
  Ratio EC50: 10
[16]
  fold change (FC): 5
[17]
  Ratio EC50: 10
[18]
  inhibition (INH): Not Active
[19]
  Ratio EC50: 10
[20]
  inhibition: Active
[21]
  Ratio EC50: 10
[22]
  Ratio: 9818
[23]
  inhibition: Active
[24]
  inhibition: inactive
[25]
  Ratio EC50: 10
[26]
  Ratio EC50: 10
[27]
  inhibition: Active
[28]
  Ratio EC50: 10
[29]
  Activity: Active
[30]
  inhibition: inactive
[31]
  inhibition: Active
[32]
  inhibition: Active
[33]
  Ratio EC50: 10
[34]
  inhibition: Active
[35]
  Activity: Active
[36]
  inhibition: Active
[37]
  IC50: 0.215 µM
[38]
  inhibition: Active
[39]
  inhibition: Active
[40]
  inhibition: inactive
[41]
  fold change (FC): 14
